Several values for one entry are separate records, joined by “and”; a condition that tells them apart may be missing. Equal entries are not always repeated.
Columns and labels:
[1] = Metabolic effect of adropin^34-76 administration in mice; type: in vivo, mouse; conditions: delivered as two 45 nmol/kg injections
Description: (§1) Using mice, the Inventors have shown that administration of adropin^34-76, in doses as low as 90 nmol/kg/day, delivered as two 45 nmol/kg injections, can be effective in producing changes in metabolism. Dose as high as 900 nmol/kg/d are well tolerated in mice. While the doses required for a desired clinical effect in humans is expected to vary between patients, the 90 nmol/kg dose administered by subcutaneous, intramuscular, or intravenous injection, either once or twice a day, may represent a preferred treatment protocol. It is anticipated that the treatments would be administered daily, although long-acting formulations involving weekly injections are envisaged. The optimum dose and frequency for a particular subject may be determined by the patient's treating physician, based on the patient's cognitive response. It is anticipated that adropin therapy may or may not improve a subject's cognitive function relative to current baseline, however adropin therapy may result in significant delays in the advancement of the disease. Improvement may manifest as a significant delay or a reduced rate of subsequent cognitive decline.

plasma cytokine levels = test: Plasma cytokine levels after TBI; type: in vivo, mouse; conditions: TBI followed by adropin vs TBI followed by saline
Protocol: FIG. 17 illustrates plasma cytokine levels of mice that were: uninjured, subjected to TBI, and subjected to TBI followed by adropin injections.
TBI PROCEDURE: Mice were exposed to mild closed-head concussive TBI. Mice were anesthetized with isoflurane 2-4% and placed under a device consisting of a Plexiglas tube (inner diameter 13 mm) placed vertically over the animal's head. Adequate anesthesia was determined by the lack of both the corneal reflex and toe pinch reflex. Each mouse received 90 sec Isoflurane anesthesia in the induction chamber. The injury was induced by dropping a 25-gm acrylic weight from 80 cm height down the Plexiglas tube, striking the skull. This weight was chosen based upon literature using this type of device (Tweedie et al. (2016) PLoS One. 11(6):e0156493; Zohar et al. (2011) Acta Neurobiol Exp. 71:36-45). […] Following Isoflurane anesthesia and the weight drop procedure, mouse respiration, heart rate and righting reflex was monitored to ensure recovery. The righting reflex time was recorded for each mouse. […] When the mouse moves from a supine to a prone position, i.e., rights itself, the time will be recorded. […] One hour following the weight drop injury four reflexes were checked and recorded: the corneal reflex in both eyes, hindleg extension when held by the tail, startle response from a puff of air, and the ability to walk with a normal gate. […]

[2] = Body weight and survival during 4 weeks of adropin^34-76 injections; type: in vivo; conditions: group 1 (adropin^34-76, 90 nmol/kg/day ip), 15 mice
Protocol: (§2) To examine the effects of endogenous adropin on a subject's cognitive ability, 34 male C57BL/6J (B6) mice, aged 18 months, were treated with exogenous adropin^34-76. Mice were purchased from The Jackson Laboratory (Bar Harbor, Me.). After acclimation for 1 month, mice were separated into two weight matched groups of 15 mice: Group 1 adropin^34-76 treatment group and Group 2 saline vehicle control.
(§3) The mice were administered a single intraperitoneal injection (volume 100 μl) each morning (0900h) for 4 weeks. Group 1 was administered adropin^34-76 at a dose of 90 nmol/kg/day. Group 2 was administered saline. The peptide was purchased from Neoscientific Inc. Behavioral testing began after 2 weeks of injections. Injections continued though testing until 4 weeks.

[3] = tested on: Male C57BL/6J B6 mice subjected to TBI; test: T-maze retention after mild closed-head traumatic brain injury (TBI); type: in vivo, mouse
Protocol: FIG. 16 illustrates the results of T-maze data from adropin treated and adropin transgenic mice after traumatic brain injury. SHAM are mice handled but not subject to injury. Veh are mice treated with 0.9% saline. […] (A) Mice used were males, aged 10-14 weeks, purchased from the Jackson laboratory. (B) “TG” are adropin transgenic mice. “WT” are wild-type littermates. All mice were males aged 9-12 months.
Memory retention and acquisition were assessed using an aversive T-maze and novel objective recognition, as previously described (Farr et al., (2016) J Alzheimers Dis.; 54(4):1339-1348). Briefly, the T-maze consists of a black plastic alley with a start box at one end and two goal boxes at the other. An electrifiable floor of stainless steel rods run throughout the maze to deliver a foot-shock using a scrambled grid floor shocker (Model E13-08, Coulbourn Instruments, Whitehall, Pa.). Mice are not permitted to explore the maze prior to training. A block of training trials begins when mice are placed in the start box. The guillotine door is raised and a cue buzzer sounded simultaneously (doorbell type, at 55 dB); 5s later a mild aversive foot-shock is applied with an intensity of 0.35 mA. The arm of the maze entered on the first trial is designated “incorrect” and the mild foot-shock continued until the mouse enters the other goal box, which in all subsequent trials is designated “correct” for each mouse. Mice are trained until they made one active avoidance, with an inter-trial interval of 30-35s. The number of trials to make one active avoidance is the measure of acquisition. […]
(§4) TBI PROCEDURE: Mice were exposed to mild closed-head concussive TBI. […] Adequate anesthesia was determined by the lack of both the corneal reflex and toe pinch reflex. […] Following Isoflurane anesthesia and the weight drop procedure, mouse respiration, heart rate and righting reflex was monitored to ensure recovery. The righting reflex time was recorded for each mouse. […] When the mouse moves from a supine to a prone position, i.e., rights itself, the time will be recorded. […]

[4] = tested on: male C57BL/6J (B6) mice, aged 18 months; test: Aversive T-maze acquisition, aged mice treated with adropin^34-76; type: in vivo, mouse; conditions: 90 nmol/kg/day ip
Protocol: (§5) Memory retention and acquisition were assessed using an aversive T-maze and novel objective recognition, as previously described (Farr et al., (2016) J Alzheimers Dis.; 54(4):1339-1348). Briefly, the T-maze consists of a black plastic alley with a start box at one end and two goal boxes at the other. An electrifiable floor of stainless steel rods run throughout the maze to deliver a foot-shock using a scrambled grid floor shocker (Model E13-08, Coulbourn Instruments, Whitehall, Pa.). Mice are not permitted to explore the maze prior to training. A block of training trials begins when mice are placed in the start box. The guillotine door is raised and a cue buzzer sounded simultaneously (doorbell type, at 55 dB); 5s later a mild aversive foot-shock is applied with an intensity of 0.35 mA. The arm of the maze entered on the first trial is designated “incorrect” and the mild foot-shock continued until the mouse enters the other goal box, which in all subsequent trials is designated “correct” for each mouse. Mice are trained until they made one active avoidance, with an inter-trial interval of 30-35s. The number of trials to make one active avoidance is the measure of acquisition. Retention is tested 7d later, with training continued until the criterion of making five active avoidances in six consecutive trials is achieved. The number of trials needed to reach this criterion is the measure of retention (Butler et al., (2012) The Journal of clinical endocrinology and metabolism; 97(10):3783-3791; Wong et al., (2014) The Journal of biological chemistry; 289(37):25976-25986).
as §2, §3
Mice prepared with adropin or placebo in Example 3 were subjected to the Acquisition T-maze test.

[5] = Tolerability of adropin^34-76 in mice; type: in vivo, mouse
Description: as §1

[6] = tested on: male C57BL/6J (B6) mice, aged 18 months; test: Novel Object Recognition test, aged mice treated with adropin^34-76; type: in vivo, mouse
Protocol: For the novel object recognition task, mice are habituated to an empty apparatus, a 58×66×11-cm white plastic box, for 5 min a day for 3 consecutive days prior to entry of objects. On the first day of training, mice are placed in the testing apparatus with two identical objects (A and B). 24h later the animal is reintroduced to the arena but this time one of the original objects is removed and a new object (C). Total time spent exploring each of the two objects is recorded. Anxiety will be assessed using open field and elevated plus maze tests. The experimental apparatus consists of a central platform, two open arms and two equal-sized closed arms opposite to each other. The test consisted of placing a mouse in the central platform facing an enclosed arm and allowing it to freely explore the maze for 5 min. The number of entries into the open and closed arms and the time spent in open arms was measure by an observer blind to treatment
as §2, §3
A non-amnesic subject will spend more time exploring the novel object than the familiar one. When adropin treated and vehicle treated mice were subjected to the Novel Object Recognition test, adropin treated mice spent more time exploring the novel object (FIG. 11, Table 1)

[7] = tested on: male C57BL/6J (B6) mice, aged 18 months; test: Aversive T-maze retention (retest after 7 days), aged mice treated with adropin^34-76; type: in vivo, mouse; conditions: 90 nmol/kg/day ip
Protocol: as §5, §2, §3
(FIG. 12, Table 3) Mice were retested in the maze after 7 days and Adropin treated mice retained learned memories and complete the maze in lets time.

[8] = tested on: subjects with diet-induced obesity; conditions: Kumar et al. 2008, Gao et al. 2014, 2015; cited from earlier work
[9] = tested on: Hippocampal gene expression; test: Hippocampal gene expression (cytokines, growth factors) after TBI; type: in vivo, mouse; conditions: TBI+Adr vs TBI+veh and Sham
Protocol: FIG. 18 illustrates Hippocampal gene expression. There are increases in the expression of cytokines (significant for IL16, CCI2, IL17) in the hippocampus of TBI-veh mice versus uninjured (sham) controls TBI also appears to result in changes in expression of growth factors (BDNF, VEGF). In most cases, these changes were attenuated by adropin treatment.
Gene expression was assessed using qRT-PCR as previously described. Hippocampal and cortical tissue samples were dissected from fresh brains and snap frozen brains on dry-ice cold isopentane. Total RNA was extracted using Trizol (Invitrogen, Life Technologies) and treated with a DNAfree kit (Ambion, Life Technologies). […] Quantitative PCR was performed in 96-well plates using Taqman gene expression and QuantStudio 7 Detection Systems (Applied Biosystems, Life Technologies); 36B4 was used as the reference gene.
as §4

[10] = n = 14, SEM in next cell, P <0.0001 vs vehicle

Substance: adropin^34-76 (CHSRSADVDSLSESSPNSSPGPCPEKAPPPQKPSHEGSYLLQP; Adropin; UniProt Q6UWT2 34-76, looked up, fragment)
- dose effective in producing changes in metabolism [1]: ≥ 90 nmol/kg/day
- plasma cytokine levels after TBI, in words (plasma cytokine levels): possible reduction in inflammatory responses to TBI
- deaths during treatment [2]: One mouse in group 1 died
- deficits in spatial learning and memory after TBI ([3]; 450 nmol/kg iv at 1 h and 450 nmol/kg ip at 24 h post-injury, male B6 mice): exhibited protection from deficits in spatial learning and memory
- T-maze retention after TBI, compared with uninjured vehicle treated controls ([3]; TBI+Adro vs SHAM+Veh): not significantly different
- T-maze retention after TBI, compared with TBI followed by saline ([3]; TBI+Adro vs TBI+Veh, injections 1 h and 24 h post-injury, ** 99% confidence): significantly improved
- T-maze acquisition, result in words vs placebo treated mice [4]: performed better
- T-maze acquisition, difference between means (Adropin vs. Vehicle) ([4]; vehicle mean 10.80): −3.443
- T-maze acquisition, mean (Adropin) [4, 10]: 7.357
- T-maze acquisition (individual mice) ([4]; one value per mouse, number of trials to make one active avoidance): 7. (5×) and 8. (4×) and 9. (2×) and 6. (3×)
- dose well tolerated [5]: ≤ 900 nmol/kg/day
- Novel Object Recognition, result in words vs vehicle treated mice ([6]; 90 nmol/kg/day ip): improved cognitive performance
- Novel Object Recognition, difference between means (Adropin vs. Vehicle) ([6]; 90 nmol/kg/day ip, vehicle mean 43.90): 14.99
- Novel Object Recognition, mean (Adropin) ([6]; n = 15, SEM in next cell, P 0.0183 vs vehicle, unpaired t test, 90 nmol/kg/day ip): 58.88
- Novel Object Recognition test, 24 Hour delay % Novel Object (individual mice) ([6]; one value per mouse, 90 nmol/kg/day ip for 4 weeks, testing after 2 weeks): 55.56% and 77.50% and 66.67% and 79.10% and 51.06% and 100.00% and 51.61% and 46.43% and 42.86% and 53.06% and 37.50% and 40.74% and 64.58% and 62.50% and 58.82%
- T-maze Retention, difference between means (Adropin vs. Vehicle) ([7]; vehicle mean 9.200): −2.343
- T-maze Retention, mean (Adropin) [7, 10]: 6.857
- T-maze Retention (individual mice) ([7]; one value per mouse, trials to five active avoidances in six consecutive trials, 7 d later): 7. (7×) and 8. and 6. (5×) and 9.
- T-maze retention, result in words vs vehicle ([7]; retested after 7 days): superior performance
- metabolic changes after intraperitoneal injection, in words [8]: metabolic changes suggesting improvements in glucose control and reduced risk for type 2 diabetes
- TBI-induced changes in hippocampal cytokine and growth factor expression, in words [9]: these changes are attenuated in most cases
